# Assay results from US6281250A, “Retinyl ethers, derivatives and analogues and inhibition of breast carcinogenesis” (Southern Research Institute, priority 1999, dated 2001).
# Read-outs that look alike come from different tables or passages of the source.
# What was measured:
# [1] = Shealy et al., 1997; cited from earlier work
# [2] = system: MNU-induced mammary cancer; test: 180-day study of RTMBE for suppression of MNU-induced mammary carcinogenesis (Expt. 3); assay type: in vivo, rat (female Sprague-Dawley)
# Experimental: (§1) Retinoid diet mixtures were stored at 4° C. […] The animals were palpated for mammary tumors 2×/week. […] Also, five rats/group had complete necropsies performed.
# (§2) The 2,5-dimethoxybenzyl (3b) and 4-methoxybenzyl (3e) ethers were tested in the same way in a 90-day study. […] The 2,5-dimethybenzyl (3c) and the 2,3-dimethoxybenzyl (3h) ethers, together with RTMBE for comparison, were likewise assayed according to the same methodology. Prior to the beginning of this study, specimens of the retinoid-diet mixtures were placed under the conditions that were employed during the storage and feeding of RTMBE, 3c, and 3h. The specimens were extracted with butanol, and the extracts were analyzed by HPLC. […] Testing of 3c and 3h was discontinued, but the RTMBE study was continued until the duration of the study was 180 days (Table 6). The results were similar to those of Experiment 1 (Table 3). The averages of the number of tumors per rat were reduced by 32-35%; in addition, the averages of the tumor weights per rat was 56-70% lower than the average tumor burden of the control group.
# ^a Each group of female Sprague-Dawley rats (10/group) received one
# until Day 180 after injection of MNU.
# and was continued until the study was terminated at 180 days after MNU.
# [3] = system: MNU-induced mammary cancer; test: Short-term (90-day) assay against MNU-induced mammary cancer in rats (Expts. 2 and 3); assay type: in vivo, rat (female Sprague-Dawley); conditions: 90 days
# Experimental: as §1, §2
# and was continued until the studies of 3b, 3c, 3e, and 3h were terminated
# 90 days after administration of MNU. The RTMBE experiment was continued
# until 180 days after MNU administration (Table VI).
# kilogram of Teklad diet.
# [4] = Tissue concentrations resulting from gavage of rats with RTMBE; assay type: in vivo, rat (female Sprague-Dawley); conditions: for concentration at 168 h / concentration at 336 h: rat, po, 14 mg/day by gavage; for concentration at 168 h: 7 days; for concentration at 336 h: 14 days
# Experimental: To plasma samples (50-200 μl), ten volumes of acetonitrile were added, and the preparations were centrifuged. The supernatants were evaporated to dryness under nitrogen and reconstituted in the mobile phase (see below). Tissues were homogenized in four volumes of water at 0° C., and each homogenate was extracted with acetonitrile (50 mL/g tissue). From this point, handling of plasma and tissue samples was identical. Portions (25-50 μl) of the reconstituted samples were analyzed by reverse-phase HPLC. The chromatographic system was composed of a Beckman solvent delivery module 110B, analogue interface module 406, programable detector module 166, and autosampler 507. The column was a Hypersil ODS, 5-μ, 250×4.6 mm. Elution was accomplished with a solvent of methanol:0.2%acetic acid (93.5:6.5, v/v) with the final solution containing 0.02% triethylamine. The flow rate was 1 mL/min, with detection at 340 nm.
# The concentrations of RTMBE in the serum, mammary gland, and liver of rats, as well as the levels of RP in the liver, were determined after administration of RTMBE by gavage during 14 days (Table 9). […] In order to investigate further the accumulation of retinyl benzyl ethers in mammary tissue, RTMBE, the 2,5-dimethoxybenzyl ether (3b), and the 4-methoxybenzyl (3e) ether were administered intravenously (via a tail vein) at 5 mg/kg to female Sprague-Dawley rats (3 with each retinoid). Acetonitrile extracts of plasma and mammary tissue were analyzed by HPLC. The ratios of mammary tissue-to-plasma concentrations of RTMBE, 3b, and 3e were 183±77, 38±20, and 41±14, respectively, after 24 hr.
# ^a The dose of 14 mg/day by gavage is equivalent to a feeding dose of 2
# [5] = mammary gland, read-out: RTMBE, Mammary Gland
smiles,measurement,setting,value
"COc1cc(COC/C=C(C)/C=C/C=C(C)/C=C/C2=C(C)CCCC2(C)C)cc(OC)c1OC [Compound 2, Retinyl 3,4,5-Trimethoxybenzyl Ether]",recovery from the feed of rats,[1],recoverable from the feed of rats
same,"Adenocarcinomas, % of Control Gp.","[2]; 0.5 mmol/kg diet, 180 days",65%
same,"Adenocarcinomas, Avg. No. Per Rat","[2]; 0.5 mmol/kg diet, 180 days",4.07
same,Final Body Wt.,"[2]; 0.5 mmol/kg diet, 180 days",259 g
same,Tumor Wt. Per Rat,"[2]; 0.5 mmol/kg diet, 180 days",7.0 g
same,"Adenocarcinomas, % of Control Gp.","[2]; 1 mmol/kg diet, 180 days",67%
same,"Adenocarcinomas, Avg. No. Per Rat","[2]; 1 mmol/kg diet, 180 days",4.20
same,Final Body Wt.,"[2]; 1 mmol/kg diet, 180 days",252 g
same,Tumor Wt. Per Rat,"[2]; 1 mmol/kg diet, 180 days",7.57 g
same,"Adenocarcinomas, % of Control Gp.","[2]; 2 mmol/kg diet, 180 days",68%
same,"Adenocarcinomas, Avg. No. Per Rat","[2]; 2 mmol/kg diet, 180 days",4.27
same,Final Body Wt.,"[2]; 2 mmol/kg diet, 180 days",246 g
same,Tumor Wt. Per Rat,"[2]; 2 mmol/kg diet, 180 days",5.14 g
same,average tumor weight per rat lower than control group,"[2]; 180 days, 0.5-2 mmol/kg diet",56-70%
same,reduction of average number of tumors per rat,"[2]; 180 days, 0.5-2 mmol/kg diet",32-35%
same,suppression of MNU-induced mammary cancer,[2]; three long-term experiments of 160-180 days,suppressed MNU-induced mammary cancer
same,reduction of the number of tumors per rat,[3]; at 1 mmol/kg,64%
same,"Tumors, % of Control Gp.","[3]; Expt. 3, 0.5 mmol/kg diet",78%
same,"Tumors, Avg. No. per Rat","[3]; Expt. 3, 0.5 mmol/kg diet",1.5
same,"Tumors, % of Control Gp.","[3]; Expt. 3, 1 mmol/kg diet",36%
same,"Tumors, Avg. No. per Rat","[3]; Expt. 3, 1 mmol/kg diet",0.7
same,"Tumors, % of Control Gp.","[3]; Expt. 3, 2 mmol/kg diet",36%
same,"Tumors, Avg. No. per Rat","[3]; Expt. 3, 2 mmol/kg diet",0.7
same,liver levels of RP compared with vehicle group,"[4]; after 14 days, gavage",only slightly higher than the levels of the vehicle group
same,change of serum concentration of RTMBE,"[4]; between 7 and 14 days, gavage",did not change significantly
same,increase of concentration in mammary gland,"[4]; between 7 and 14 days, gavage",more than two-fold
same,increase of liver level of RTMBE,"[4]; between 7 and 14 days, gavage",22%
same,concentration at 168 h,"[4]; liver, read-out: RTMBE, Liver",78900 ± 7500 ng/g
same,concentration at 336 h,"[4]; liver, read-out: RTMBE, Liver",96100 ± 11100 ng/g
same,concentration at 168 h,[4]; [5],83300 ± 7300 ng/g
same,concentration at 336 h,[4]; [5],178000 ± 11100 ng/g
same,concentration at 168 h,"[4]; serum, read-out: RTMBE, Serum",16300 ± 2500 ng/mL
same,concentration at 336 h,"[4]; serum, read-out: RTMBE, Serum",17300 ± 2200 ng/mL
